In patent US9107411B2, “Indolecarboxamides and benzimidazolecarboxamides as insecticides and acaricides” (BAYER INTELLECTUAL PROPERTY GMBH, priority 2011, dated 2015):
Read-outs that look alike come from different tables or passages of the source.

What was measured:
Tetranychus urticae = experiment: Tetranychus test, OP-resistant (TETRUR spray treatment); assay type: in vivo; conditions: bean leaf discs, after 6 days
Method in brief: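 Bean leaf discs infested with all stages of OP-resistant T. urticae sprayed with compound formulated in acetone/DMF plus alkylaryl polyglycol ether emulsifier, diluted in water. Efficacy (% mites killed) scored after 6 days.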

Myzus persicae = experiment: Myzus test (MYZUPE spray treatment); assay type: in vivo; conditions: Chinese cabbage leaf discs, after 6 days
Experimental: Myzus Test (MYZUPE Spray Treatment) Solvent: 78 parts by weight of acetone • • 1.5 parts by weight of dimethylformamide Emulsifier: 0.5 part by weight of alkylaryl polyglycol ether To produce an appropriate active ingredient formulation, 1 part by weight of active ingredient is mixed with the stated amounts of solvent and emulsifier, and the concentrate is diluted with emulsifier-containing water to the desired concentration. Leaf discs of Chinese cabbage (Brassica pekinensis) infested by all stages of the green peach aphid (Myzus persicae) are sprayed with an active ingredient formulation of the desired concentration. After 6 days, the efficacy in % is determined. 100% means that all of the aphids have been killed; 0% means that none of the aphids have been killed.

Spodoptera frugiperda = Spodoptera frugiperda test (SPODFR spray treatment); assay type: in vivo; conditions: maize leaf discs, after 7 days
Method in brief: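 Maize leaf discs sprayed with active ingredient formulated in acetone/dimethylformamide with emulsifier, diluted in emulsifier-containing water to the desired concentration. After drying, discs were populated with armyworm caterpillars. Efficacy (%) scored after 7 days: 100% all caterpillars killed, 0% none killed.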

logP (HPLC-MS) = assay type: physicochemical
Phaedon cochleariae = experiment: Phaedon test (PHAECO spray treatment); assay type: in vivo; conditions: Chinese cabbage leaf discs, after 7 days
Method in brief: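 Chinese cabbage leaf discs were sprayed with compound in acetone/DMF with emulsifier, diluted in water to the test concentration. After drying, discs were infested with mustard beetle larvae. Efficacy in % was scored after 7 days, where 100% means all larvae were killed and 0% means none.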

Boophilus microplus = Boophilus microplus test (BOOPMI injection); assay type: in vivo; conditions: application rate 20 μg/animal; injected into the abdomen; after 7 days
Experimental: Boophilus microplus Test (BOOPMI Injection) Solvent: dimethyl sulphoxide To prepare an appropriate active ingredient formulation, 10 mg of active ingredient are mixed with 0.5 ml of solvent and the concentrate is diluted with solvent to the desired concentration. The active ingredient solution is injected into the abdomen (Boophilus microplus), and the animals are transferred into dishes and stored in a climate-controlled room. After 7 days, the efficacy in % is determined. The activity is assessed by laying of fertile eggs. 100% means that none of the ticks has laid any fertile eggs.

Ctenocephalides felis = Ctenocephalides felis oral (CTECFE); assay type: in vivo; conditions: application rate 100 ppm in citrated cattle blood; after 2 days
Experimental: Ctenocephalides felis Oral ([…]) Solvent: 1 part by weight of dimethyl sulphoxide For the purpose of preparing an appropriate active ingredient formulation, 10 mg of active ingredient are mixed with 0.5 ml of dimethyl sulphoxide. A portion of the concentrate is diluted with citrated cattle blood, and the desired concentration is prepared. About 20 unfed adult fleas (Ctenocephalides felis) are placed into a chamber which is closed at the top and bottom with gauze. A metal cylinder whose bottom end is closed with Parafilm is placed onto the chamber. The cylinder contains the blood/active ingredient formulation, which can be imbibed by the fleas through the Parafilm membrane. After 2 days, the kill in % is determined 100% means that all of the fleas have been killed; 0% means that none of the fleas have been killed.

adult Musca domestica = experiment: Musca domestica test (MUSCDO); assay type: in vivo; conditions: application rate 100 ppm; treated sponge; after 2 days
Experimental: (§1) Musca domestica Test (MUSCDO) Solvent: dimethyl sulphoxide To prepare an appropriate active ingredient formulation, 10 mg of active ingredient are mixed with 0.5 ml of dimethyl sulphoxide and the concentrate is diluted with water to the desired concentration. Vessels containing a sponge treated with the active ingredient formulation of the desired concentration are populated with adult Musca domestica. After 2 days, the kill in % is determined 100% means that all of the flies have been killed; 0% means that none of the flies have been killed.

Lucilia cuprina larvae = experiment: Lucilia cuprina test (LUCICU); assay type: in vivo; conditions: application rate 100 ppm; treated horse meat; after 2 days
Experimental: as §1, with “Lucilia cuprina” for “Musca domestica”, “(LUCICU)” for “(MUSCDO)”, “horse meat” for “a sponge”, “about 20 Lucilia cuprina larvae.” for “adult Musca domestica.”, “determined.” for “determined”, “larvae” for “flies”

[1] = HPLC, reversed-phase column (C18), acidic range pH 2.7, acetonitrile (0.1% formic acid)/water gradient, 43° C., calibration with unbranched alkan-2-ones
[2] = HPLC, reversed-phase column (C18), 43° C., acidic range pH 2.7, EEC directive 79/831 Annex V.A8, two values = both regioisomers (G = N)

SMILES	efficacy in % (Tetranychus urticae; application rate 500 g/ha) [%]	efficacy in % (Myzus persicae; application rate 500 g/ha) [%]	efficacy in % (Spodoptera frugiperda; application rate 500 g/ha) [%]	log p (logP (HPLC-MS); [1])	efficacy in % (Phaedon cochleariae; application rate 500 g/ha) [%]	efficacy in % (Tetranychus urticae; application rate 100 g/ha) [%]	efficacy in % (Myzus persicae; application rate 100 g/ha) [%]	efficacy in % (Spodoptera frugiperda; application rate 100 g/ha) [%]	efficacy in % (Phaedon cochleariae; application rate 100 g/ha) [%]	efficacy (laying of fertile eggs) (Boophilus microplus) [%]	efficacy (kill in %) (Ctenocephalides felis) [%]	efficacy (kill in %) (adult Musca domestica) [%]	efficacy (kill in %) (Lucilia cuprina larvae) [%]	log p (logP (HPLC-MS); [2])	chromatographic logP (logP (HPLC-MS); HPLC, reversed-phase column (C18), 43° C., acidic range pH 2.7, EEC directive 79/831 Annex V.A8, two values = both regioisomers (G = N), read-out: log p)	chromatographic logP (logP (HPLC-MS); HPLC-MS)	pest or weed control at 500 g/ha (Phaedon cochleariae; Phaedon cochleariae, foliar, 168 h, application rate 500 g/ha, read-out: efficacy in %) [%]
C#CCn1c(C(=O)NC(c2cccc(Cl)c2)C(F)(F)F)cc2cc(C(=O)NC3CC3)c(Cl)cc21 (stereo not drawn) [Compound 5]	100	90	100	3.45	100												
C#CCn1c(C(=O)NC(c2ccc(F)c(Cl)c2)C(F)(F)F)nc2cc(C(=O)NC3CC3)c(Cl)cc21 (stereo not drawn) [Compound 101]				3.50		80	80	100	100								
CCn1c(C(=O)NC(c2cccc(C(F)(F)F)c2)C(F)(F)F)cc2cc(C(=O)NC3(C#N)CC3)c(C)cc21 (stereo not drawn) [Compound 183]				3.75		100	90	100	100								
CCn1c(C(=O)NC(c2ccc(F)c(C(F)(F)F)c2)C(F)(F)F)cc2cc(C(=O)NC3CC3)c(C)cc21 (stereo not drawn) [Compound 188]				3.76		100		100	100	100	100	100	100				
CCn1c(C(=O)NC(c2ccc(F)c(Br)c2)C(F)(F)F)cc2cc(C(=O)NC3CC3)c(C)cc21 (stereo not drawn) [Compound 190]				3.70		100		100	100	100	100	100	100				
CCn1c(C(=O)NC(c2ccc(F)c(Cl)c2)C(F)(F)F)cc2cc(C(=O)NC3(C#N)CC3)c(C)cc21 (stereo not drawn) [Compound 193]				3.66		100	90	100	100								
CCn1c(C(=O)NC(c2cc(Cl)cc(Cl)c2)C(F)(F)F)cc2cc(C(=O)NC3(C#N)CC3)c(C)cc21 (stereo not drawn) [Compound 195]				4.09		100		100	100	100	100	100	100				
C#CCn1c(C(=O)NC(c2cccc(C(F)(F)F)c2)C(F)(F)F)cc2cc(C(=O)NC3(C#N)CC3)c(C)cc21 (stereo not drawn) [Compound 209]				3.48		100	90	100	100								
CCn1c(C(=O)NC(c2cc(Cl)c(Cl)c(Cl)c2)C(F)(F)F)cc2cc(C(=O)NC3(C#N)CC3)c(Cl)cc21 (stereo not drawn) [Compound 275]				4.43		100		100	100	100	100	100	100				
C=CCn1c(C(=O)NC(c2ccc(F)c(C(F)(F)F)c2)C(F)(F)F)nc2cc(C(=O)NC3CC3)c(Cl)cc21 (stereo not drawn) [Compound 281]	100	90	100		100		100							3.79			
C=CCn1c(C(=O)NC(c2cccc(C(F)(F)F)c2)C(F)(F)F)cc2cc(C(=O)NC3(C#N)CC3)c(Cl)cc21 (stereo not drawn) [Compound 283]						100		100	100	100	100	90	100	3.74			
CC#CCn1c(C(=O)NC(c2cccc(C(F)(F)F)c2)C(F)(F)F)cc2cc(C(=O)NC3(C#N)CC3)c(Cl)cc21 (stereo not drawn) [Compound 285]						100		100	100	100	100	90	100	3.87			
CCCn1c(C(=O)NC(c2cccc(C(F)(F)F)c2)C(F)(F)F)cc2cc(C(=O)NC3(C#N)CC3)c(Cl)cc21 (stereo not drawn) [Compound 288]						100		100	100	100	100	100	100	4.03			
CCn1c(C(=O)NC(c2cc(Cl)c(Cl)c(Cl)c2)C(F)(F)F)cc2cc(C(=O)NC3(C#N)CC3)c(C)cc21 (stereo not drawn) [Compound 289]		100				100		100	100					4.43			
CCn1c(C(=O)NC(c2cc(Cl)c(F)c(Cl)c2)C(F)(F)F)cc2cc(C(=O)NC3(C#N)CC3)c(C)cc21 (stereo not drawn) [Compound 290]		100				100		100	100					4.13			
CCn1c(C(=O)NC(c2cc(Cl)cc(Cl)c2)C(F)(F)F)cc2cc(C(=O)NC3(C#N)CC3)c(C)cc21 (stereo not drawn) [Compound 291]						100	90	100	100					4.07			
CCn1c(C(=O)NC(c2ccc(F)c(F)c2)C(F)(F)F)cc2cc(C(=O)NC3CC3)c(C)cc21 (stereo not drawn) [Compound 295]						100	90	100	100					3.40			
N#CCn1c(C(=O)NC(c2ccc(F)c(C(F)(F)F)c2)C(F)(F)F)nc2cc(C(=O)NC3CC3)c(Cl)cc21 (stereo not drawn) [Compound 301]	90	90	100		100												
O=C(NC1CC1)c1cc2nc(C(=O)NC(c3cccc(C(F)(F)F)c3)C(F)(F)F)n(C3CC3)c2cc1Cl (stereo not drawn) [Compound 312, 6-chloro-N^5,1-dicyclopropyl-N^2-{2,2,2-trifluoro-1-[3-(trifluoromethyl)phenyl]ethyl}-1H-benzimidazole-2,5-dicarboxamide]		100	100				100								3.48	3.48	100
